Earlier results as cited in patent US7585869B2, “Substituted heterocylces for the treatment of abnormal cell growth” (Pfizer, Inc., priority 2003, dated 2009).

Assays:
[1] = tested on: carcinoma which does not express the EGF receptor
[2] = tested on: transplanted human mammary carcinoma which expresses epidermal growth factor receptor tyrosine kinase (EGFR); details: athymic nude mice

O=CN/C=C/c1cc(O)ccc1O [erbstatin]
effect on growth of another carcinoma [1]: without effect on the growth | effect on growth of transplanted human mammary carcinoma [2]: selectively attenuates the growth
